How the values were obtained:
[1] = biological target: T1, von Hippel-Lindau disease tumor suppressor/GTPase KRas (Homo sapiens, UniProt P01116+P40337, G12C); test: Protac activity at VHL/KRAS G12C mutant in human MIA PaCa-2 cells assessed as degradation of KRAS G12C mutant incubated for 24 hrs by immunoblot assay; format: cell-based
[2] = biological target: T1, von Hippel-Lindau disease tumor suppressor/GTPase KRas; test: Protac activity at VHL/KRAS G12C mutant in human NCI-H23 cells assessed as degradation of KRAS G12C mutant incubated for 24 hrs by immunoblot assay; format: cell-based
[3] = biological target: T1, von Hippel-Lindau disease tumor suppressor/GTPase KRas; test: Protac activity at VHL/KRAS G12C mutant in human NCI-H358 cells assessed as degradation of KRAS G12C mutant incubated for 24 hrs by immunoblot assay; format: cell-based
[4] = biological target: T1, von Hippel-Lindau disease tumor suppressor/GTPase KRas; test: Protac activity at VHL/KRAS G12C mutant in human NCI-H2030 cells assessed as degradation of KRAS G12C mutant incubated for 24 hrs by immunoblot assay; format: cell-based
[5] = biological target: T1, von Hippel-Lindau disease tumor suppressor/GTPase KRas; test: Protac activity at VHL/KRAS G12C mutant in human SW1573 cells assessed as degradation of KRAS G12C mutant incubated for 24 hrs by immunoblot assay; format: cell-based
[6] = biological target: Protein cereblon/GTPase KRas (Homo sapiens, UniProt P01116+Q96SW2, G12C); test: Protac activity at CRBN/KRAS G12C mutant in human NCI-H358 cells assessed as degradation of KRAS G12C mutant; format: cell-based
[7] = tested on: MV4-11; test: Antiproliferative activity against human MV4-11 cells incubated for 48 to 72 hrs by celltiter-glo luminescent cell viability assay; format: functional, cell-based
[8] = biological target: T2, von Hippel-Lindau disease tumor suppressor/Bromodomain-containing protein 4 (Homo sapiens, UniProt O60885+P40337); test: Protac activity at VHL/BRD4 in human HeLa cells assessed as degradation of BRD4 incubated for 24 hrs by Western blotting analysis; format: cell-based
T2 sequence (P40337 whole entry, looked up, other chains not shown): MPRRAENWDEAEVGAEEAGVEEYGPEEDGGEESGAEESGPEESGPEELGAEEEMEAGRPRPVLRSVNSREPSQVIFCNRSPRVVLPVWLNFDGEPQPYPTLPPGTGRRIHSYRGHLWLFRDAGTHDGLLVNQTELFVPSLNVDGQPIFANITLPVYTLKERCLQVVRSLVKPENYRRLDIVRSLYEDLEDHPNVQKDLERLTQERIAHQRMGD

[9] = biological target: T3, von Hippel-Lindau disease tumor suppressor/Bromodomain-containing protein 2 (Homo sapiens, UniProt P25440+P40337); test: Protac activity at VHL/BRD2 in human HeLa cells assessed as degradation of BRD2 incubated for 24 hrs by Western blotting analysis; format: cell-based
T3 sequence (P25440 whole entry): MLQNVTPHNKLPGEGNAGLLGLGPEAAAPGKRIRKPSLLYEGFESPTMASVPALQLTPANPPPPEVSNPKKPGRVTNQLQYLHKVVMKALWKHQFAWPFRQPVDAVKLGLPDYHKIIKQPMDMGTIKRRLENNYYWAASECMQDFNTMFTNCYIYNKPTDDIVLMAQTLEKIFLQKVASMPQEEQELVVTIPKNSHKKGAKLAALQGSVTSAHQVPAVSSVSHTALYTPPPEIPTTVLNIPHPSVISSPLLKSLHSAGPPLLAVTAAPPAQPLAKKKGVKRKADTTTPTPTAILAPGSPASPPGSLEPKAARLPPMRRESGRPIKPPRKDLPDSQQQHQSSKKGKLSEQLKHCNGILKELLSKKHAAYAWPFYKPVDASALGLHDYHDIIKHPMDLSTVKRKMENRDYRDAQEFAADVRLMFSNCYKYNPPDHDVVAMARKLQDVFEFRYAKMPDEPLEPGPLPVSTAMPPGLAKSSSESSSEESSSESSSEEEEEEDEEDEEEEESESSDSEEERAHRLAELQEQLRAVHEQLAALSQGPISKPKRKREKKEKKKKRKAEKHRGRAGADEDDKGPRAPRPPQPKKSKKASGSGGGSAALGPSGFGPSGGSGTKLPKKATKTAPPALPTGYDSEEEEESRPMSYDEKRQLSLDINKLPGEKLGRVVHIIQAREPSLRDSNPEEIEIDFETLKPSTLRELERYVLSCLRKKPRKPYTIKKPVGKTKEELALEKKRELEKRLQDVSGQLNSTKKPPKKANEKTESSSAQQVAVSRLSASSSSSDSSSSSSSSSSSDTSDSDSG
T3 sequence (P40337 whole entry): as the sequence (P40337 whole entry, looked up, other chains not shown) above

[10] = biological target: T4, von Hippel-Lindau disease tumor suppressor/Bromodomain-containing protein 3 (Homo sapiens, UniProt P40337+Q15059); test: Protac activity at VHL/BRD3 in human HeLa cells assessed as degradation of BRD3 incubated for 24 hrs by Western blotting analysis; format: cell-based
T4 sequence (Q15059 whole entry): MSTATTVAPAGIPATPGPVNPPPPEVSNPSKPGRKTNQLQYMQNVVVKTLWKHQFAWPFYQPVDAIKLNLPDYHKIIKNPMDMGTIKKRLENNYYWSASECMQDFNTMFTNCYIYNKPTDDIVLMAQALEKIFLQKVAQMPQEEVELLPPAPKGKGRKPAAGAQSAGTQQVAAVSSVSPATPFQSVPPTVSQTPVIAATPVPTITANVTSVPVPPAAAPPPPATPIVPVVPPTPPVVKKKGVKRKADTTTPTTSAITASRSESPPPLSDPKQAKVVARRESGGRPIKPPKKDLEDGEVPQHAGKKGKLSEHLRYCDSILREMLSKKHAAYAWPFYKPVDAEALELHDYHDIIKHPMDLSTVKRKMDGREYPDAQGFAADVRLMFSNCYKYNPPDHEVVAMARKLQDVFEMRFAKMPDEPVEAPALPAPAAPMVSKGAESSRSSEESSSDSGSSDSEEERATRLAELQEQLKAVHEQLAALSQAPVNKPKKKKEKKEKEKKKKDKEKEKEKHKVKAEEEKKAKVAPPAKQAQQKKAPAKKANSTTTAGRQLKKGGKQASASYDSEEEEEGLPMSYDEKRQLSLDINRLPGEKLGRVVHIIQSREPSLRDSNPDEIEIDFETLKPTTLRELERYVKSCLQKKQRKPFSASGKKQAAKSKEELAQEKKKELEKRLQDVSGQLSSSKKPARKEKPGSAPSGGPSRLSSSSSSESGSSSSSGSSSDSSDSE
T4 sequence (P40337 whole entry): as the sequence (P40337 whole entry, looked up, other chains not shown) above

[11] = biological target: Protein cereblon/Protein deacetylase HDAC6 (Homo sapiens, UniProt Q96SW2+Q9UBN7); test: Protac activity at CRBN/HDAC6 in human MM1.S assessed as degradation of HDAC6 incubated for 6 hrs by ELISA; format: cell-based
[12] = tested on: MM1.S; test: Antiproliferative activity against human MM1.S cells incubated for 72 hrs by MTS assay; format: functional, cell-based
[13] = biological target: Protein cereblon/Bromodomain-containing protein 4 (Homo sapiens, UniProt O60885+Q96SW2); test: Protac activity at CRBN/BRD4 (unknown origin); format: protein assay
[14] = tested on: NCI-H358; test: Antiproliferative activity against human NCI-H358 cells assessed as inhibition of cell growth incubated for 5 days by celltiter-glo luminescent cell viability assay; format: functional, cell-based; conditions: NCI-H358, 120 h
[15] = tested on: OVCAR-8; test: Antiproliferative activity against human OVCAR-8 cells; format: functional, cell-based
[16] = tested on: T47D; test: Antiproliferative activity against human T47D cells; format: functional, cell-based
[17] = tested on: HeLa; test: Antiproliferative activity against human HeLa cells; format: functional, cell-based
[18] = biological target: T2, von Hippel-Lindau disease tumor suppressor/Bromodomain-containing protein 4; test: Protac activity at VHL/BRD4 in human HCT-116 cells assessed as degradation of BRD4 incubated for 24 hrs by immunoblot assay; format: cell-based
[19] = tested on: LNCaP; test: Antiproliferative activity against human LNCaP cells; format: functional, cell-based
[20] = biological target: Androgen receptor (Homo sapiens) (UniProt P10275); test: Binding affinity to androgen receptor (unknown origin) at 10 uM relative to control
[21] = biological target: von Hippel-Lindau disease tumor suppressor/Cyclin-dependent kinase 6 (Homo sapiens, UniProt P40337+Q00534); test: Protac activity at VHL/CDK6 in human MM1.S cells assessed as degradation of CDK6 incubated for 16 hrs by immunoblot assay; format: cell-based
[22] = tested on: MCF7; test: Antiproliferative activity against human MCF7 cells assessed as inhibition of cell growth measured after 5 days by PrestoBlue cell viability assay; format: functional, cell-based; conditions: MCF7, 120 h
[23] = biological target: von Hippel-Lindau disease tumor suppressor/Histone deacetylase 3 (Homo sapiens, UniProt O15379+P40337); test: Protac activity at VHL/HDAC3 in human MDA-MB-468 assessed as degradation of HDAC3 incubated for 14 hrs by Western blot analysis; format: cell-based
[24] = tested on: MCF7; test: Antiproliferative activity against human MCF7 cells assessed as cell growth inhibition incubated for 6 days with media replacement for every 2 to 3 days by MTT assay; format: functional, cell-based
[25] = biological target: von Hippel-Lindau disease tumor suppressor/Estrogen receptor (Homo sapiens, UniProt P03372+P40337); test: Protac activity at VHL/ER alpha in human MCF7 cells assessed as degradation of ER alpha incubated for 6 hrs by Western blot analysis; format: cell-based
[26] = biological target: Protein cereblon/Cyclin-dependent kinase 4 (Homo sapiens, UniProt P11802+Q96SW2); test: Protac activity at CRBN/CDK4 in human MDA-MB-231 cells; format: cell-based
Protein cereblon/Cyclin-dependent kinase 4, sequence (P11802 whole entry): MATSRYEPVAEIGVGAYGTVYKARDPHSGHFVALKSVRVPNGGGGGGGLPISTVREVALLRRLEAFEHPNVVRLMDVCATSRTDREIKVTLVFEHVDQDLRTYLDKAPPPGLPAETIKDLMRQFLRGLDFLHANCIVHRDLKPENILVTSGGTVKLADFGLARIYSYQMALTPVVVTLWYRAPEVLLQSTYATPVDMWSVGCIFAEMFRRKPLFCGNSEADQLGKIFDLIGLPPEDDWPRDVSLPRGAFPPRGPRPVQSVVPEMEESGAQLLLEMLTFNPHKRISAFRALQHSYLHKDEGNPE
Protein cereblon/Cyclin-dependent kinase 4, sequence (Q96SW2 whole entry): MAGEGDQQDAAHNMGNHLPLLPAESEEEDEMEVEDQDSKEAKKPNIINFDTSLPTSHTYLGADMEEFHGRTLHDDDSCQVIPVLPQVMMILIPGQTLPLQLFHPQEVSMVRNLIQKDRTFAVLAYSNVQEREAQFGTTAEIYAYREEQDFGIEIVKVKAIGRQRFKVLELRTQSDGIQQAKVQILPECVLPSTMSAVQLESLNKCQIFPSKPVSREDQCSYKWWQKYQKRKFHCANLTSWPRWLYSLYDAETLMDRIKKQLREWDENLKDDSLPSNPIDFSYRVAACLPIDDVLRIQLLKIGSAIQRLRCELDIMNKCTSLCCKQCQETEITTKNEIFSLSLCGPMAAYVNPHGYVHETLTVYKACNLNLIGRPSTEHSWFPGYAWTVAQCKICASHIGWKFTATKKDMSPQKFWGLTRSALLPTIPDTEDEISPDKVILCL

[27] = biological target: Protein cereblon/Cyclin-dependent kinase 6 (Homo sapiens, UniProt Q00534+Q96SW2); test: Protac activity at CRBN/CDK6 in human MDA-MB-231 cells; format: cell-based
[28] = biological target: von Hippel-Lindau disease tumor suppressor/Epidermal growth factor receptor (Homo sapiens, UniProt P00533+P40337); test: Protac activity at VHL/wildtype EGFR in human OVCAR-8 cells assessed as degradation of wild type EGFR incubated for 24 hrs by immunoblot assay; format: cell-based
von Hippel-Lindau disease tumor suppressor/Epidermal growth factor receptor, sequence (P00533 whole entry): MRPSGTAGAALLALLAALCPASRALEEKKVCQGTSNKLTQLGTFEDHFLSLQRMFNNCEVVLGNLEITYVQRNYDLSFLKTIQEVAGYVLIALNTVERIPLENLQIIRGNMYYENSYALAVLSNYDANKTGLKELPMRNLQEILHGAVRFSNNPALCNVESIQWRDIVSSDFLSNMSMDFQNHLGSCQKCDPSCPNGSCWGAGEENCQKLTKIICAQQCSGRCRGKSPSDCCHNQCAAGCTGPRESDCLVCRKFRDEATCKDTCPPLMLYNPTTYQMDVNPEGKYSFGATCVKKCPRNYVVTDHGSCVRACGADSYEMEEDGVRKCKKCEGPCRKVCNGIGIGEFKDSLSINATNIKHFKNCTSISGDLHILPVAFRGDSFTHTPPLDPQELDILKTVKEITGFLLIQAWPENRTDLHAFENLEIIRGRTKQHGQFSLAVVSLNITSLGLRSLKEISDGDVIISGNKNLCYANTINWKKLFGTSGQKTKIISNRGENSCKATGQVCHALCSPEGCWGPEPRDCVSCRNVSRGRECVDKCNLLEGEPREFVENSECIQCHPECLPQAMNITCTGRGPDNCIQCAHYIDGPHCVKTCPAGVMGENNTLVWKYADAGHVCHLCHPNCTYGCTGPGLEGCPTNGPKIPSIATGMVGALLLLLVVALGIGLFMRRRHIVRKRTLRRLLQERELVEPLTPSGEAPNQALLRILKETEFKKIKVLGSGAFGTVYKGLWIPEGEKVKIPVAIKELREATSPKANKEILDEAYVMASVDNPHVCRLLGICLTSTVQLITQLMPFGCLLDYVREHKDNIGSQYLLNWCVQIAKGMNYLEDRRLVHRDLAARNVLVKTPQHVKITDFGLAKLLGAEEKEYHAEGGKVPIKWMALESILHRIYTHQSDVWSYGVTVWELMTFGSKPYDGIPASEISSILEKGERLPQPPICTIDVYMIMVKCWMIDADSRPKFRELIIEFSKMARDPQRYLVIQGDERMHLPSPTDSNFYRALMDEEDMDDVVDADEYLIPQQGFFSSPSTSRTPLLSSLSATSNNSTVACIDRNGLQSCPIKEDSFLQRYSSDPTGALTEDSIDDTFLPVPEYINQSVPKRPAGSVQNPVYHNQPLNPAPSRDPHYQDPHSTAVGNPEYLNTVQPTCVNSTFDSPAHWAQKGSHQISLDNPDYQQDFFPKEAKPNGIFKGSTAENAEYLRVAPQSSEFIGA
von Hippel-Lindau disease tumor suppressor/Epidermal growth factor receptor, sequence (P40337 whole entry): as the sequence (P40337 whole entry, looked up, other chains not shown) above

[29] = biological target: T3, von Hippel-Lindau disease tumor suppressor/Bromodomain-containing protein 2; test: Protac activity at VHL/BRD2 in HEK293 cells assessed as degradation of BRD2 incubated for 4 hrs by Western blot analysis; format: cell-based
[30] = Cytotoxicity against HEK293 cells assessed as inhibition of cell growth; format: toxicity, cell-based; conditions: human
[31] = biological target: T2, von Hippel-Lindau disease tumor suppressor/Bromodomain-containing protein 4; test: Protac activity at VHL/BRD4 in HEK293 cells assessed as degradation of BRD4 incubated for 4 hrs by Western blot analysis; format: cell-based
[32] = biological target: T4, von Hippel-Lindau disease tumor suppressor/Bromodomain-containing protein 3; test: Protac activity at VHL/BRD3 in HEK293 cells assessed as degradation of BRD3 incubated for 4 hrs by Western blot analysis; format: cell-based
[33] = tested on: BaF3; test: Antiproliferative activity against mouse BaF3 cells harboring EGFR L858R/T790M mutant assessed as cell growth inhibition incubated for 72 hrs; format: functional, cell-based; conditions: BaF3, 72 h
[34] = biological target: Protein fem-1 homolog B/Bromodomain-containing protein 4 (Homo sapiens, UniProt O60885+Q9UK73); test: Protac activity at FEM1B/BRD4 in human HEK293T cells assessed as degradation of BRD4 incubated for 8 hrs by Western blot analysis; format: cell-based

T1 sequence (P01116 whole entry G12C, stated change not applied): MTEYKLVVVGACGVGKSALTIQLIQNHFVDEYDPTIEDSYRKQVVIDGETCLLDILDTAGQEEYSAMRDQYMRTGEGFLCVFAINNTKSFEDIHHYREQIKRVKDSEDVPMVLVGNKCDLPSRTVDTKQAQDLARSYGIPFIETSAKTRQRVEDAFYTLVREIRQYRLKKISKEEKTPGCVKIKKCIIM
T1 sequence (P40337 whole entry, stated change not applied): as the sequence (P40337 whole entry, looked up, other chains not shown) above

`C=C(F)C(=O)N1CCN(c2nc(O[C@@H]3CCCN3CCCOCCC(=O)N[C@H](C(=O)N3C[C@H](O)C[C@H]3C(=O)NCc3ccc(-c4scnc4C)cc3)C(C)(C)C)nc3c2CCN(c2cccc4cccc(Cl)c24)C3)C[C@H]1CC#N` showed an EC50 [1] of 250 nM, an EC50 [2] of 250 nM and an EC50 [3] of 250 nM. The EC50 [4] was 250 nM and the EC50 [5] was 250 nM.

In the case of `COc1cc(Cl)c(-c2cc(Cl)ccc2Cl)cc1C(=O)N1CCN(C(=O)/C=C/C(=O)NCCCCCCNc2cccc3c2C(=O)N(C2CCC(=O)NC2=O)C3=O)CC1` (stereo not given), the EC50 [6] is reported as 1250 nM.

For `Cc1ncsc1-c1ccc2c(c1)OCCOCCO[C@H](NC(=O)C[C@@H]1N=C(c3ccc(Cl)cc3)c3c(sc(C)c3C)-n3c(C)nnc31)COCCOCCOCC(=O)N[C@H](C(C)(C)C)C(=O)N1C[C@@H](O)C[C@@H]1C(=O)NC2`, the EC50 [7] was 300 nM, the EC50 [8] was 25 nM and the EC50 [9] was > 125 nM. The EC50 [10] was > 125 nM.

Compound `O=C(CCCCCCC(=O)N/N=C/c1ccc(OCCCC#Cc2cccc3c2CN(C2CCC(=O)NC2=O)C3=O)cc1)NO` (stereo not given) has an EC50 [11] of 1.9 nM.

In the case of `Nc1ccccc1NC(=O)c1ccc(COc2cccc3c2CN(C2CCC(=O)NC2=O)C3=O)cc1` (stereo not given), the IC50 [12] is reported as 43 nM.

In the case of `Cc1sc2c(c1C)C(c1ccc(Cl)cc1)=N[C@@H](CC(=O)NCCCCCNC(=O)COc1ccc(C3CCC(=O)NC3=O)cc1)c1nnc(C)n1-2` (stereo not given in full), the EC50 [13] is reported as 0.87 nM.

`C=CC(=O)N1CCN(c2nc(NCCCN3CCN(CCCNc4cccc5c4C(=O)N(C4CCC(=O)NC4=O)C5=O)CC3)nc3cc(Cl)c(-c4cc(O)cc5ccccc45)c(F)c23)CC1` (stereo not given) showed an IC50 [14] of 510 nM.

`Cc1ncsc1-c1ccc(CNC(=O)[C@@H]2C[C@@H](OC(=O)CCCCn3cc(NC(=O)CC[C@@H](NC(=O)c4ccc(NCc5cnc6nc(N)[nH]c(=O)c6n5)cc4)C(=O)O)nn3)CN2C(=O)[C@@H](NC(=O)COCCCOCCNC(=O)C[C@@H]2N=C(c3ccc(Cl)cc3)c3c(sc(C)c3C)-n3c(C)nnc32)C(C)(C)C)cc1` showed an IC50 [15] of 297 nM, an IC50 [16] of 18 nM and an IC50 [17] of 246 nM.

Work on `COc1cc(C(=O)NCCOCCOCCOCCNC(=O)C[C@@H]2N=C(c3ccc(Cl)cc3)c3c(sc(C)c3C)-n3c(C)nnc32)ccc1NC(=O)[C@@H]1N[C@@H](CC(C)(C)C)[C@](C#N)(c2ccc(Cl)cc2F)[C@H]1c1cccc(Cl)c1F` yielded an EC50 [18] of 23.1 nM.

`CC1(C)C(=O)N(c2ccc(C#N)c(C(F)(F)F)c2)C(=S)N1COCCOCCOn1cc(CCCCCC(=O)CC23CC4CC(CC(C4)C2)C3)nn1` showed an IC50 [19] of 1750 nM and an Activity [20] of 82.6%.

`CC(=O)C1=C(O)N(C2CCCC2)c2nc(Nc3ccc(N4CCN(CCOCCOCCOc5cc(-c6scnc6C)ccc5CNC(=O)[C@@H]5C[C@@H](O)CN5C(=O)C(NC(=O)C5(F)CC5)C(C)(C)C)CC4)cn3)ncc2C1C` (stereo not given in full) showed an EC50 [21] of 5.1 nM.

`CCN(CCCCCCCC(=O)NC(C(=O)N1C[C@@H](O)C[C@@H]1C(=O)N[C@H](C)c1ccc(-c2scnc2C)cc1)C(C)(C)C)CCOc1ccc(C(=O)c2c(-c3ccc(O)cc3)sc3cc(O)ccc23)cc1` (stereo not given in full) gave an IC50 [22] of 0.8 nM.

Work on `CCCNNC(=O)c1ccc(-c2ccc(NC(=O)CCCCCCC(=O)NC(C(=O)N3C[C@@H](O)C[C@@H]3C(=O)N[C@H](C)c3ccc(-c4scnc4C)cc3)C(C)(C)C)cc2)cc1` (stereo not given in full) yielded an EC50 [23] of 42 nM.

With `Cc1ncsc1-c1ccc([C@@H](C)NC(=O)[C@H]2C[C@H](O)CN2C(=O)[C@H](NC(=O)CCCCOc2ccc(CCNC(=O)c3ccc(C(=O)c4c(-c5ccc(O)cc5)sc5cc(O)ccc45)cc3)cc2)C(C)(C)C)cc1` the IC50 [24] was 13.2 nM and the EC50 [25] was 1.1 nM.

Compound `CN(C)C(=O)c1cn(C2CCCC2)c2cnc(Nc3ccc(N4CCN(c5cn(CCCCCNc6cccc7c6C(=O)N(C6CCC(=O)NC6=O)C7=O)nn5)CC4)cn3)nc12` (stereo not given) has an EC50 [26] of 97 nM.

Work on `CC(=O)C1=C(O)N(C2CCCC2)c2nc(Nc3ccc(N4CCN(Cc5cn(CCCCCNc6cccc7c6C(=O)N(C6CCC(=O)NC6=O)C7=O)nn5)CC4)cn3)ncc2C1C` (stereo not given) yielded an EC50 [27] of 34.1 nM and an EC50 [26] of 12.9 nM.

With `Cc1ncsc1-c1ccc(CNC(=O)[C@@H]2C[C@@H](O)CN2C(=O)[C@@H](NC(=O)COCCOCCOCCOc2ccc(-c3ccc4ncnc(Nc5ccc(OCc6cccc(F)c6)c(Cl)c5)c4c3)cc2)C(C)(C)C)cc1` the EC50 [28] was 39.2 nM.

Compound `Cc1ncsc1-c1ccc(CNC(=O)[C@H]2C[C@H](O)CN2C(=O)[C@H](NC(=O)COCC(C)(COCCOCCOCCNC(=O)C[C@H]2N=C(c3ccc(Cl)cc3)c3c(sc(C)c3C)-n3c(C)nnc32)COCCOCCOCCNC(=O)C[C@H]2N=C(c3ccc(Cl)cc3)c3c(sc(C)c3C)-n3c(C)nnc32)C(C)(C)C)cc1` has an EC50 [29] of 1.1 nM, an IC50 [30] of 1.1 nM and an EC50 [31] of 0.7 nM. It also gave an EC50 [32] of 3.3 nM.

For `O=C1CCC(N2C(=O)c3cccc(NCCOCCOCCOCCN4CCN(c5ccc(-c6ccc7c(c6)C(=O)N(C(C(=O)Nc6nccs6)c6ccccc6)C7)cn5)CC4)c3C2=O)C(=O)N1` (stereo not given), the IC50 [33] was 96 nM.

Work on `C#CCCN(C(=O)CCl)c1ccc2c(c1)OCCN2CC(=O)NCCCCNC(=O)C[C@@H]1N=C(c2ccc(Cl)cc2)c2c(sc(C)c2C)-n2c(C)nnc21` yielded an EC50 [34] of 250 nM.

From ChEMBL document CHEMBL5247611, “A bibliometric analysis of PROTAC from 2001 to 2021” (Eur J Med Chem, 2022)
